The source of these data is patent publication US8735388B2, “Heterocyclic compounds with affinity to muscarinic receptors” (Abbvie B. V. A., priority 2007, dated 2014).

In assay [1] the target is T1, Muscarine M4 (GPCR-A-MA-ACH M4) (Homo sapiens, UniProt P08173).
T1 construct: expressed in transfected cells; host or cells: CHO cells
T1 sequence (P08173 1-479): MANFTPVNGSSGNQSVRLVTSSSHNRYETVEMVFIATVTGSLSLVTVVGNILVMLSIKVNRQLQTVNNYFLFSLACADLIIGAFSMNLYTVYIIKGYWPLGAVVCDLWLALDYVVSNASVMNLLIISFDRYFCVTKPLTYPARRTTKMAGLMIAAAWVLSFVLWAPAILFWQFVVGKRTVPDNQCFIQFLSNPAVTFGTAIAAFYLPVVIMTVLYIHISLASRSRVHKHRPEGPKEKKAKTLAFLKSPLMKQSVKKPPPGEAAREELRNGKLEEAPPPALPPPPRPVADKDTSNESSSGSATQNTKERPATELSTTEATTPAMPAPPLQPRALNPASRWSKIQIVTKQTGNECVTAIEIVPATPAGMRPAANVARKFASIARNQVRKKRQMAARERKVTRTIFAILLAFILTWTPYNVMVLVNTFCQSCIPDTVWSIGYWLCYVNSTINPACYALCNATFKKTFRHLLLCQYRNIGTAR
As to conditions: read-out: Ligand Kd; cited from earlier work.

Assay [2] addresses T2, Muscarine M2 (GPCR-A-MA-ACH M2) (Homo sapiens, UniProt P08172).
T2 construct: expressed in transfected cells; host or cells: CHO cells
T2 sequence (P08172 1-466): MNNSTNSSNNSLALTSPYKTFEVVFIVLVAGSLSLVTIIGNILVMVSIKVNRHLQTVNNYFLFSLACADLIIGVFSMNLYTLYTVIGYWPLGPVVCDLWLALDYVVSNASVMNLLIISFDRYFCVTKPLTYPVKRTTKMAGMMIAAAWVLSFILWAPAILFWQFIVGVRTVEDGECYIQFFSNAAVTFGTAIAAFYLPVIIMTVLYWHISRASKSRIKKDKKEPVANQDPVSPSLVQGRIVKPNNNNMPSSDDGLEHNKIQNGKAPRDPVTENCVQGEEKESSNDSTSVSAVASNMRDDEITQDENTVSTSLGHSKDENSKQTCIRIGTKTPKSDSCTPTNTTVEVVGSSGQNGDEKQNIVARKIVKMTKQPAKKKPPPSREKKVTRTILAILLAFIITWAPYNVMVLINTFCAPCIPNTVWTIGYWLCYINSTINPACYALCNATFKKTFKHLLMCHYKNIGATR
As to conditions: read-out: Ligand Kd; cited from earlier work.

Assay [3] concerns Muscarine M1 (GPCR-A-MA-ACH M1). The assay is described as follows: Muscarine M1 functional assay, isolated organ (vas deferens, field-stimulated). To be noted: assay characteristic; Muscarine M1, rabbit vas deferens, inhibition of twitch contraction; read-out: Reference Agonist Ligand EC50. How it is done:
Compounds were dissolved in DMSO (10 mM) and diluted in assay buffer to test concentration. Prime testing was at 1 μM; for actives in antagonist mode (PI, percent inhibition with respect to reference agonist and blank>30%) as well as actives in agonist mode (PS, percent stimulation with respect to reference agonist and blank>30%) testing was continued at lower concentrations in 10-fold dilutions: 0.1 μM, 0.01 μM, etc.
The tissues were exposed to a maximal concentration of the respective reference agonist to verify responsiveness and to obtain a control response. Following extensive washings and recovery of the initial state, the tissues were exposed to the test compounds or the same agonist. […]
The parameters measured were the maximum change in the amplitude of the electrically-evoked contractions (M1 and M2 receptor assays) or in tension (M3 receptor assay) induced by each compound concentration. The results are expressed as a percent of the control agonist-induced response. The EC50 values of the reference agonists (concentration producing a half-maximum response) and IC50 values of the reference antagonists (concentration producing a half-maximum inhibition of the agonist-induced response) were calculated by […] analysis of their concentration-response curves.

For assay [4], the target named is T3, Muscarine M3 (GPCR-A-MA-ACH M3) (Cavia porcellus, UniProt H0W1Z3).
T3 construct: from tissue; host or cells: guinea pig ileum
T3 sequence (H0W1Z3 1-590): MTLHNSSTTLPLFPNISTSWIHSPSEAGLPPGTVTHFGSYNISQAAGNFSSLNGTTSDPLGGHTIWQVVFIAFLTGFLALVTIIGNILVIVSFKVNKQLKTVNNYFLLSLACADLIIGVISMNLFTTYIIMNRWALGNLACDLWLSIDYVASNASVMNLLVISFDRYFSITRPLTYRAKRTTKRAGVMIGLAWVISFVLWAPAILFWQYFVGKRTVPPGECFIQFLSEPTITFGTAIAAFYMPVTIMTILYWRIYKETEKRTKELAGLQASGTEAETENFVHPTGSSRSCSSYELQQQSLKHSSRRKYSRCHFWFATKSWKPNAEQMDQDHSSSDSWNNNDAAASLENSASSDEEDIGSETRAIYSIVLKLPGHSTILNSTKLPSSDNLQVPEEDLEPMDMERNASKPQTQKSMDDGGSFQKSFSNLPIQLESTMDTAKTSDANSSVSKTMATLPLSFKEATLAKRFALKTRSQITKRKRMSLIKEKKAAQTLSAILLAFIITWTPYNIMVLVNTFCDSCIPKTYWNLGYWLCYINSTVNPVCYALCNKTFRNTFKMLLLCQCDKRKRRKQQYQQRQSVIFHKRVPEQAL
The assay is described as follows: Muscarine M3 functional assay, isolated organ (ileum), agonist and antagonist mode. Set-up: species or system Guinea Pig.

The term Kd denotes the constant that tells how readily two partners part at equilibrium. As usually defined, the EC50 is the midpoint of the concentration-response curve.

Turning to 3H-Oxotremorine, the Kd in assay [1] is 4.5 nM.
On to `CCCN(CCC)CC1CCCCN1CCNC(=O)N1c2ccccc2C(=O)Nc2cccnc21` (stereo not shown) [Compound 3H-AFDX384, 3H-AFDX384], for which the Kd in assay [2] is 4.3 nM.
As to `C[N+](C)(C)CC#CCOC(=O)Nc1cccc(Cl)c1.[Cl-]` [McN-A-343, reference compound], the EC50 in assay [3] was found to be 250 nM. Further, the “Cell funct. Musc. M3 Agonism pEC50” value in assay [4] was 6.9.
